Measurements from patent EP0134922A1, “2-Piperazino-pteridines, processes for their preparation and medicaments containing these compounds” (Dr. Karl Thomae GmbH, priority 1983, dated 1985).
Like-named read-outs stand apart in the source and are kept apart here.

Assays:
Mäusen = assay: Orienting acute toxicity after a single oral dose; conditions: in vivo, po, 250 mg/kg
Source text: (§1) Die orientierende akute Toxizität der zu untersuchenden Substanzen wurde orientierend an Gruppen von je 5 Mäusen nach oraler Gabe einer Einzeldosis bestimmt (Beobachtungszeit: 14 Tage): […]

[1] = Orienting acute toxicity after a single oral dose; conditions: mouse, in vivo, read-out: Orientierende aktute Toxizität
Source text: as §1

[2] = mice, groups of 5, oral single dose, observation time 14 days

c1ccc(CSc2nc3c(N4CCOCC4)nc(N4CCNCC4)nc3nc2N2CCOCC2)cc1 [Substanz A, 6-Benzylthio-4,7-dimorpholino-2-piperazino-pteridin]
Tieren gestorben (Mäusen): 0 von 5 | LD50 at 336 h [1, 2]: > 250 mg/kg

CN(C)c1nc2nc(N3CCNCC3)nc(N(C)C)c2nc1Cl [Substanz B, 6-Chlor-4,7-bis-(dimethylamino)-2-piperazino-pteridin]
Tieren gestorben (Mäusen): 0 von 5 | LD50 at 336 h ([1]; po): > 250 mg/kg

CN(C)c1nc2nc(N3CCNCC3)nc(N(C)C)c2nc1SCc1ccccc1 [Substanz C, 6-Benzylthio-4,7-bis-(dimethylamino)-2-piperazino-pteridin]
Tieren gestorben (Mäusen): 0 von 5 | LD50 at 336 h [1, 2]: > 250 mg/kg

CSc1nc2c(N3CC[S+]([O-])CC3)nc(N3CCNCC3)nc2nc1NCc1ccccc1 [Substanz D, 7-Benzylamino-6-methylthio-4-(1-oxidothiomorpholino)-2-piperazino-pteridin]
Tieren gestorben (Mäusen): 0 von 5 | LD50 at 336 h [1, 2]: > 250 mg/kg

CN(C)c1nc(N2CCNCC2)nc2nc(NCc3ccccc3)c(Cl)nc12 [Substanz E, 6-Chlor-2-piperazino-4-dimethyl-amino-7-benzylamino-pteridin]
Tieren gestorben (Mäusen): 0 von 5 | LD50 at 336 h ([1]; po): > 250 mg/kg
